Experimental data published in patent US9896491B2, “Composition for treatment of multiple sclerosis” (LIFEBIO LABORATORIES LLC, priority 2009, dated 2018).

How the values were obtained:
ESAMBPCAA [1] = assay: ESAMBPCAA mediated MBP hydrolysis in serum samples of progressive MS patients in presence of test substances; format: biochemical, human; conditions: for MBP-specific auto antibody mediated hydrolysis: test substance 100 nM
Description: (§1) MBP hydrolysis by anti MBP auto antibodies was assayed as follows: Purified antibodies (0.1-1 μg) were incubated at 37° C. for 14 h in the final volume of 12.5 μl PBS, 0.02% NaN3 containing 1-2 μg of MBP. The samples were mixed with Laemmli's buffer. The extent of MBP degradation was visualized by SDS-PAGE in Tris-glycine and Tricine buffer systems. For quantitative MBP degradation assay, MBP (10 μM) was incubated at 37° C. with antibodies (60 nM) in 0.1 ml of PBS, 0.02% NaN3 for 12 h. The reaction was stopped by adding 10% TFA up to pH 2.5. The samples were further chromatographed on column C4 4.0/150 (Waters). The amount of non-cleaved MBP was calculated by absorbance monitoring at 280 nm.
Serum samples collected from 5 patients suffering from progressive MS were quantified for ESAMBPCAA mediated MBP hydrolysis as specified in Example 1 in presence of following substances: […]

ESAMBPCAA [2] = assay: ESAMBPCAA mediated MBP hydrolysis in serum of treated EAE DA rats; format: in vivo; conditions: days 8-12; for rates of MBP-specific auto antibody mediated hydrolysis: median for 6 animals
ESAMBPCAA [3] = assay: Inhibition of ESAMBPCAA mediated MBP hydrolysis by synthetic oligopeptides of MBP fragment 43-68; format: biochemical, human; conditions: antibodies 30 nM, MBP 4 mkM, 16 h at 37° C.; FIG. 3
Description: as §1
The oligopeptides were assayed for their potency to inhibit ESAMBPCAA mediated MBP hydrolysis using ESAMBPCAA collected from progressive MS Patient as specified in Example 1. Different concentrations of test peptides were mixed with both antibodies (30 nM) and MBP (4 mkM) in TBS with_0.1% NaN3_and 10 mM CaCl2. The samples were incubated for 16 h at 37° C. and analyzed on 15% SDS_PAGE. The gels were stained by Coomassie and analyzed by densitometry with TOTALLAB 2.01 software (Nonlinear Dynamics, Ltd., Newcastle upon Tyne, U.K.). […] Shortening of oligopeptide lengths to less than 6 amino acids lead to complete lack of ESAMBPCAA inhibitory activity.

ESAMBPCAA [4] = assay: ESAMBPCAA mediated MBP hydrolysis in serum of treated TMEV-infected SJL mice; format: in vivo; conditions: 20 μg of each oligopeptide daily subcutaneous, days 14-24
Description: as §1
(§2) The BeAn strain of TMEV used in this study was generated and propagated in BHK-21 cells grown in Dulbecco's modified Eagle's medium supplemented with 7.5% donor calf serum. For i.c. infection, 30 μl of virus solution (0.2×10^6 to 6×10^6 PFU) was injected into the right cerebral hemisphere of 6- to 8-week-old SJL mice (8 animals per group) anesthetized with isoflurane. Clinical symptoms (MDS score) of disease were assessed weekly on the following grading scale: grade 0, no clinical signs; grade 1, mild waddling gait or flaccid tail; grade 2, severe waddling gait; grade 3, moderate hind limb paresis; and grade 4, severe hind limb paralysis. Serum samples collected from animals were quantified for ESAMBPCAA mediated MBP hydrolysis as specified in Example 1
(§3) At day 14 following infection mice were divided into 6 groups ([…]) and treated during 10 days (days 14-24) according following schedule: […]

[5] = test system: Experimental Allergic Encephalomyelitis (EAE) in DA rats; assay: MDS score in EAE DA rats; format: in vivo; conditions: intranasal, days 8-12; FIG. 4; dose-dependent for SEQ ID NO: 2
[6] = test system: Experimental MS (Theiler's Virus Infection) in SJL mice; assay: Experimental MS (Theiler's Virus Infection): disease manifestation and MDS score; format: in vivo; conditions: 20 μg of each oligopeptide daily subcutaneous, days 14-24
Description: as §2, §3

[7] = test system: Experimental Allergic Encephalomyelitis (EAE) in Dark Agouti (DA) Rats; assay: EAE induced by MBP 63-81 in DA rats: clinical signs score; format: in vivo
Description: Female Dark Agouti (DA) Rats, 8-9 weeks of age, about 110-145 g of weight were used as test animals.
For induction of Experimental Allergic Encephalomyelitis (EAE), rats were injected intradermally at the base of the tail with a total volume of 200 μl of inoculum containing 50 μg of MBP 63-81 (ANASPEC), in saline mixed (1:1) with Complete Freund Adjuvant, (IFA, Sigma), and 1 mg killed M. tuberculosis strain (strain H37 RA; Difco Laboratories, Detroit, Mich.). Beginning 24 hours after EAE induction the rats were followed up daily. On day 9 after the after EAE induction more than 50% of the rats developed signs of paralysis. The animals with multiple sclerosis signs were separated into 10 groups for beginning of treatment. Prior to treatment, blood was collected from 2 rats from each group. At day 9 and 11 after EAE induction, 90% of rats developed signs of EAE.
9-11 days after EAE induction the animals were divided into 9 groups (5-6 rats in each). Each group of rats was treated subcutaneously once daily with different claimed oligopeptide or theirs combinations (equimolar mix) (150 μg) or doses of positive control item (Glatiramer acetate, Copaxone, Teva) or negative control item (0.9% Sodium chloride solution), during 6 days as follows:
Copaxone, claimed oligopeptide and combinations thereof (Mechanical mix) were diluted with 0.9% Sodium chloride to a concentration of 450 μg/ml. Volume of 0.33 ml (150 μg/rat/day) was injected SC during 6 days.
After 6 days of the injections cycle the animals were maintained and followed up till day 28th post EAE induction. Clinical signs score was performed daily during study periods. Animals were observed individually during all study periods. In cases of extended observation period clinical signs were recorded once daily. Observations included changes in the fur, eyes, respiratory rate, vocalization, paralysis, activity and behavior pattern. Score of paralysis signs related to MS of each animal was done daily (during all study periods).
Score gradation was as follows: 0—Normal; 1—Tail weakness; 2—Hind leg weakness or paralysis; 3—Hind leg paralysis, dragging hind limbs; 4—Complete paralysis, unable to move; 5—Death.

## GGDRGAPKRGSGKDSHH [SEQ ID NO: 2]
ESAMBPCAA [1]; 100 nM, summary of Table 3
  suppressive effect on MBP-specific auto antibody mediated hydrolysis: potent suppressive effect
ESAMBPCAA [1]; Patient 1
  MBP-specific auto antibody mediated hydrolysis: 11.2 ± 3.5 pmol/min/nmol
ESAMBPCAA [1]; Patient 2
  MBP-specific auto antibody mediated hydrolysis: 17.3 ± 4.1 pmol/min/nmol
ESAMBPCAA [1]; Patient 3
  MBP-specific auto antibody mediated hydrolysis: 14.4 ± 2.2 pmol/min/nmol
ESAMBPCAA [1]; Patient 4
  MBP-specific auto antibody mediated hydrolysis: 14.5 ± 4.4 pmol/min/nmol
ESAMBPCAA [1]; Patient 5
  MBP-specific auto antibody mediated hydrolysis: 16.9 ± 7.3 pmol/min/nmol
ESAMBPCAA [2]; Day 8 (start of treatment), 50 μg daily intranasal
  rates of MBP-specific auto antibody mediated hydrolysis: 43.1 ± 6.4 pmol/min/nmol
ESAMBPCAA [2]; Day 8 (start of treatment), 120 μg daily intranasal
  rates of MBP-specific auto antibody mediated hydrolysis: 42.8 ± 5.5 pmol/min/nmol
ESAMBPCAA [2]; Day 16, 50 μg daily intranasal
  rates of MBP-specific auto antibody mediated hydrolysis: 35.6 ± 4.9 pmol/min/nmol
ESAMBPCAA [2]; Day 16, 120 μg daily intranasal
  rates of MBP-specific auto antibody mediated hydrolysis: 17.3 ± 5.4 pmol/min/nmol
ESAMBPCAA [2]; Day 24, 50 μg daily intranasal
  rates of MBP-specific auto antibody mediated hydrolysis: 46.3 ± 2.9 pmol/min/nmol
ESAMBPCAA [2]; Day 24, 120 μg daily intranasal
  rates of MBP-specific auto antibody mediated hydrolysis: 15.1 ± 3.9 pmol/min/nmol
ESAMBPCAA [2]; intranasal, dose-dependent for SEQ ID NO: 2
  suppression of MBP-specific auto antibody mediated hydrolysis: most efficiently suppressed
ESAMBPCAA [3]
  inhibition of ESAMBPCAA activity (ESAMBPCAA mediated MBP hydrolysis): most potent inhibitory activity
ESAMBPCAA [4]
  ESAMBPCAA activity at day 100: 11.4 ± 3.5 pmol/min/nmol
  suppression of MBP-specific auto antibody mediated hydrolysis: most efficiently suppressed
[5]
  suppression of MDS score: most efficiently suppressed
[6]
  disease-preventive (prophylactic) activity: disease-preventive (prophylactic) activity
[6]; 30 mice per group
  % Animals affected with disease at day 100: 19(30) %
[6]; FIG. 5
  suppression of MDS score: most efficiently suppressed
[7]; 150 μg/rat/day SC during 6 days
  suppression of EAE clinical signs: most efficiently suppressed
[7]; 150 μg/rat/day SC during 6 days from day 9-11 after EAE induction, score 0-5
  Clinical signs score on day 23 after induction (mean): 0.5
